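Interpolation was linear, between the two tested concentrations surrounding the appropriate level; five concentrations were tested over 48 hours in 96-well plates. GI50 = concentration required for 50% inhibition of growth. The concentration for full growth arrest is given as TGI.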
Key:
Test in all cases: growth of human tumour cells (NCI), 48 h
[1] = system: NCI-H23 lung
[2] = system: ACHN renal
[3] = system: 786-0 renal
[4] = system: MDA-MB-435
[5] = system: SR leukemia
[6] = system: M14 melanoma
[7] = system: SK-MEL-5 melanoma
[8] = system: RXF 393 renal
[9] = system: SF-295 CNS
[10] = system: UACC-62 melanoma
[11] = system: LOX IMVI melanoma
[12] = system: SN12C renal
[13] = system: SNB-19 CNS
[14] = system: U251 CNS
[15] = system: OVCAR-5 ovarian
[16] = system: UO-31 renal
[17] = system: HOP-62 NSCLC
[18] = system: BT-549 breast
[19] = system: HS 578T breast
[20] = system: SW-620 colon
[21] = system: COLO 205 colon
[22] = system: PC-3 prostate
[23] = system: MOLT-4 leukemia
[24] = system: NCI-H522 lung
[25] = system: NCI-H460 lung
[26] = system: HT29 colon
[27] = system: RPMI-8226 leukemia
[28] = system: CAKI-1 renal
[29] = system: HOP-92 NSCLC
[30] = system: HCC-2998 colon
[31] = system: OVCAR-4 ovarian
[32] = system: SK-OV-3 ovarian
[33] = system: SF-268 CNS
[34] = system: SK-MEL-2 melanoma
[35] = system: NCI-H226 lung
[36] = system: SK-MEL-28 melanoma
[37] = system: UACC-257 melanoma
[38] = system: SNB-75 CNS
[39] = system: KM12 colon
[40] = system: NCI/ADR-RES ovarian
[41] = system: MALME-3M melanoma
[42] = system: OVCAR-8 ovarian
[43] = system: K-562 leukemia
[44] = system: EKVX NSCLC
[45] = system: A549 NSCLC
[46] = system: SF-539 CNS
[47] = system: CCRF-CEM leukemia
[48] = system: HL-60(TB) leukemia
[49] = system: DU-145 prostate
[50] = system: MDA-MB-231 breast
[51] = system: A498 renal
[52] = system: TK-10 renal
[53] = system: IGROV1 ovarian

CCN(CC)c1ccc2c(c1)Oc1nc(N)c(C#N)c(N)c1C2Sc1ccc(C)cc1 (stereo unspecified)
GI50 [1]: 1260 nM | TGI [1]: 2640 nM | GI50 [2]: 1580 nM | TGI [2]: 2930 nM | GI50 [3]: 1880 nM | TGI [3]: 3450 nM | GI50 [4]: 1250 nM | TGI [4]: 2540 nM | GI50 [5]: 261 nM | TGI [5]: 834 nM | GI50 [6]: 1570 nM | TGI [6]: 3220 nM | GI50 [7]: 1760 nM | TGI [7]: 3150 nM | GI50 [8]: 1770 nM | TGI [8]: 3220 nM | GI50 [9]: 1750 nM | TGI [9]: 3190 nM | GI50 [10]: 1670 nM | TGI [10]: 3070 nM | GI50 [11]: 320 nM | TGI [11]: 1060 nM | GI50 [12]: 1680 nM | TGI [12]: 3150 nM | GI50 [13]: 1360 nM | TGI [13]: 2670 nM | GI50 [14]: 1200 nM | TGI [14]: 2740 nM | GI50 [15]: 1710 nM | TGI [15]: 3120 nM | GI50 [16]: 1350 nM | TGI [16]: 2630 nM | GI50 [17]: 1760 nM | TGI [17]: 3290 nM | GI50 [18]: 1160 nM | TGI [18]: 2500 nM | GI50 [19]: 1590 nM | TGI [19]: 4570 nM | GI50 [20]: 1500 nM | TGI [20]: 3210 nM | GI50 [21]: 1810 nM | TGI [21]: 3490 nM | GI50 [22]: 1260 nM | TGI [22]: 2600 nM | GI50 [23]: 824 nM | TGI [23]: 4300 nM | GI50 [24]: 1750 nM | TGI [24]: 3170 nM | GI50 [25]: 1390 nM | TGI [25]: 3020 nM | GI50 [26]: 1840 nM | TGI [26]: 3410 nM | GI50 [27]: 1900 nM | TGI [27]: 5610 nM | GI50 [28]: 1460 nM | TGI [28]: 2780 nM | GI50 [29]: 1310 nM | TGI [29]: 2600 nM | GI50 [30]: 1780 nM | TGI [30]: 3320 nM | GI50 [31]: 1750 nM | TGI [31]: 3180 nM | GI50 [32]: 1940 nM | TGI [32]: 3470 nM | GI50 [33]: 1670 nM | TGI [33]: 3250 nM | GI50 [34]: 1720 nM | TGI [34]: 3120 nM | GI50 [35]: 2010 nM | TGI [35]: 4620 nM | GI50 [36]: 1700 nM | TGI [36]: 3090 nM | GI50 [37]: 1850 nM | TGI [37]: 3390 nM | GI50 [38]: 1340 nM | TGI [38]: 2630 nM | GI50 [39]: 1050 nM | TGI [39]: 2280 nM | GI50 [40]: 2190 nM | TGI [40]: 5040 nM | GI50 [41]: 1680 nM | TGI [41]: 3060 nM | GI50 [42]: 1510 nM | TGI [42]: 3080 nM | GI50 [43]: 2300 nM | TGI [43]: > 100000 nM | GI50 [44]: 605 nM | TGI [44]: 2050 nM | GI50 [45]: 1930 nM | TGI [45]: 3840 nM | GI50 [46]: 1600 nM | TGI [46]: 2960 nM | GI50 [47]: 366 nM | TGI [47]: 2110 nM | GI50 [48]: 564 nM | TGI [48]: 3140 nM | GI50 [49]: 1800 nM | TGI [49]: 3210 nM | GI50 [50]: 1450 nM | TGI [50]: 2810 nM | GI50 [51]: 1890 nM | TGI [51]: 3300 nM | GI50 [52]: 2960 nM | TGI [52]: 4480 nM | GI50 [53]: 1090 nM | TGI [53]: 2360 nM

Source: PubChem BioAssay (NCI)
